Results from patent publication US20140314791A1, “METHODS OF TREATING CANCER” (DANA-FARBER CANCER INSTITUTE, INC., priority 2012, published 2014).

Test system: Lkb1-null cells
Assay: In vitro study of combination treatments with AZD7762
Type: cell-based, mouse
Settings: data not shown

## Nc1ccn([C@@H]2O[C@H](CO)[C@@H](O)C2(F)F)c(=O)n1 [Gemcitabine]
  synergy with AZD7762 in the treatment of Lkb1-null cells: moderately synergistic
